System: human diffuse large B-cell lymphoma WSU-DLCL2
Assay: Test Example 3 nude mouse subcutaneous xenograft tumor efficacy
Procedure: Human diffuse large B-cell lymphoma WSU-DLCL2 cells were purchased from DSMZ. WSU-DLCL2 cells were cultured in a 10-cm petri dish with RPMI 1640 medium (Gibco) containing 10% fetal bovine serum, penicillin and streptomycin (GIBCO, Cat #15070-063) and incubated in an incubator at 37° C. with 5% CO2. Subculturing was carried out 2-3 times a week and cells were collected, counted and inoculated when the cells grew in long-term exponentially.
Female BALB/c-nu nude mice with a growth period of 28-35 days was purchased from Beijing Huafukang Biotechnology Co., Ltd. Production license No.: SCXK (Beijing) 2019-0008, animal certification No.: 1103221911012510. Housing environment: SPF grade.
Each nude mouse was subcutaneously inoculated with 2.0×10^7 WSU-DLCL2 cells, and after the tumor volume grew to −100 mm^3, the animals were grouped according to tumor volume (D0). The mice was administrated by intravenous injection (IV), and the administration volume was 10 mL/kg; specific dosages and schedules are shown in Table 3. The tumor volumes and body weights were measured twice a week and the results were recorded.
The experimental index is to study the influence of the drug on the tumor growth, and the specific index is T/C % or tumor growth inhibition TGI (%). Tumor diameters were measured twice weekly with a vernier caliper and tumor volume (V) was calculated according to the following formula:
where a and b represent length and width, respectively. T/C (%)=(T−T0)/(C−C0)×100, where T and C were tumor volumes at the end of the experiment; T0 and C0 were tumor volumes at the beginning of the experiment.
If the volume of tumor shrank compared with its initial volume, i.e., T<T0 or C<C0, it was defined as partial regression(PR) of tumor; if the tumor completely disappeared, it was defined as complete regression (CR) of tumor.
Unless otherwise indicated, comparison between tumor volumes of the two groups was made by two-tailed student's t-test, with P<0.05 defined as statistically significant difference.

polatuzumab [Polivy]
Tolerability in tumor-bearing mice (1 mg/kg IV at D0, no significant weight loss): could well tolerate
Mean tumor volume (mean ± SEM) (D0, 1 mg/kg IV at D0): 108.07 ± 1.31 mm^3
Mean tumor volume (mean ± SEM) (D17, 1 mg/kg IV at D0): 550.88 ± 52.37 mm^3
T/C % (D17, 1 mg/kg IV at D0): 63%
Tumor inhibition rate (%) (D17, 1 mg/kg IV at D0): 37%
